The values that follow come from patent US4693996A, “Method of treating heart failure and medicaments therefor” (Warner-Lambert Company, priority 1985, dated 1987).

Test [1] has as its system α1-adrenergic receptors. In words: α1-adrenergic receptor binding.
The subject of test [2] is α-aminobuteric acid receptors. Kind of test: α-aminobuteric acid receptor binding.
Test [3] concerns β1-adrenergic receptors. Kind of test: β1-adrenergic receptor binding.
For test [4], the system named is muscarinic receptors. In words: muscarinic receptor binding.
For test [5], the system named is isolated-Langendorff perfused rat hearts. Kind of test: isolated-Langendorff perfused rat hearts. Conditions: 10^-8 -3×10^-6 M.
In test [6] the test system is anesthetized dog with propranolol-induced myocardial depression. Kind of test: propranolol-induced acute heart failure in the anesthetized dog. It counts as in vivo. As to conditions: B 6 μg/kg/min infusion, A 0.01 to 3.0 mg/kg IV bolus.
Procedure: CONT indicates the control before propanolol induced cardiac depression, DEP indicates a stable propanolol depression, and TD indicates administration of the initial test drug, either saline or (R)-N-(2,3-dihydro-1H-inden-1-yl)adenosine (B).
Adult mongrel dogs of either sex are anesthetized with sodium pentobarbital (32 mg/kg) IV, trachea intubated, and ventilated artificially. Anesthesia is maintained by a continuous infusion of sodium pentobarbital (3.0 mg/kg/hr) through a femoral vein cannula. Three additional venous cannulae are used for (1) propranolol infusion, (2) (R)-N-(2,3-dihydro-1H-inden-1-yl)adenosine or saline infusion and (3) bolus injections of either 4,5-dihydro-6-[4-(1H-imidazol-1-yl)phenyl]-3(2H)pyridazinone, hydrochloride salt or saline. Systemic arterial blood pressure, left ventricular contractility (dP/dt), and heart rate are recorded continuously. Cardiac output, measured by thermodilution, is recorded before myocardial depression, when stable myocardial depression is achieved (approximately 30 minutes), and ten minutes following each bolus dose. Following surgical preparation, 30 minutes are allowed for hemodynamic stabilization prior to induction of the myocardial depression. […]
The test system of test [7] is α2-adrenergic receptors. Kind of test: α2-adrenergic receptor binding.
Test [8] relates to anesthetized-vagotomized normotensive rats. Kind of test: hemodynamics in anesthetized-vagotomized normotensive rats. Conditions: IV 3 to 300 mg/kg. It counts as in vivo, rat. How it is done: In this procedure the (R)-N-(2,3-dihydro-1H-inden-1-yl)adenosine (B) is administered intravenously (IV) at 3 to 300 mg/kg in anesthetized-vagotomized normotensive rats.
Test [9] concerns the target T1, A1 adenosine receptor (Rattus norvegicus, UniProt P25099).
T1 construct: isolated rat brain membranes; from tissue; host or cells: rat brain membranes
T1 sequence (P25099 1-326): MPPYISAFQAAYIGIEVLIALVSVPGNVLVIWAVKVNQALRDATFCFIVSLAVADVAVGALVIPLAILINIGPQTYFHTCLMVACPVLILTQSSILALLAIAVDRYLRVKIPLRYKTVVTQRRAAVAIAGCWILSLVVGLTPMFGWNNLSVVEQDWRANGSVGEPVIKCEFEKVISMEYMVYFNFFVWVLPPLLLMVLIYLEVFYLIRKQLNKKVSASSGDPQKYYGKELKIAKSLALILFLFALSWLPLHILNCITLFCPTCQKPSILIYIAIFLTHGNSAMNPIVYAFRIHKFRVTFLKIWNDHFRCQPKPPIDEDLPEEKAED
In words: A1 adenosine receptor binding, isolated rat brain membranes.

Test [10] concerns β2-adrenergic receptors. In words: β2-adrenergic receptor binding.
Test [11] has as its system anesthetized normotensive dogs. In words: hemodynamics in anesthetized normotensive dogs. It counts as in vivo, dog. As to conditions: IV. On the procedure:
Such administration is by a method essentially described as follows:
Mongrel dogs of either sex are anesthetized with sodium pentobarbital (30 mg/kg IV) and mechanically ventilated with room air. The left and right femoral veins are cannulated for injection of test compound and maintenance anesthesia (3.5 mg/kg/hr), respectively. Cardiac output is measured by a thermodilution catheter positioned in the pulmonary artery. Left ventricular contractility (dP/dt) is measured by a Millar Mikro-Tip catheter pressure transducer positioned in the left ventricular cavity via the left carotid artery, heart rate, and lead II electrocardiogram are recorded continuously. Each animal is allowed 30 minutes to stabilize and hemodynamic control pressures, cardiac output, and electrocardiographic measurements are recorded. Compounds are dissolved in saline if possible and pH adjusted. If another solvent is required, vehicle control experiments are performed. Test compounds are administered as rising bolus doses usually starting at 0.1 midtherapeutic and increasing in half log doses to 30 X midtherapeutic. All cardiovascular measurements are repeated after each dose.
Agent induced effects on any of the cardiovascular measurements are recorded.

Test [12] relates to dopaminergic receptors. In words: dopaminergic receptor binding.
For test [13], the system named is serotonergic receptors. Kind of test: serotonergic receptor binding.
[14] abbreviates: combination compared with A alone at comparable doses.

The structures appear in SMILES notation.

A word on the IC50: it is the concentration at which inhibition is half-maximal. A lower IC50 goes with greater potency in that assay. As to `OC[C@H]1O[C@@H](n2cnc3c(N[C@@H]4CCc5ccccc54)ncnc32)[C@H](O)[C@@H]1O` [B, (R)-N-(2,3-dihydro-1H-inden-1-yl)adenosine], the “binding to α1-adrenergic receptors” value in [1] is on record as “does not significantly bind”. Further, the “binding to α-aminobuteric acid receptors” value in test [2] is “does not significantly bind”. Moreover, in test [3], the “binding to β1-adrenergic receptors” value is on record as “does not significantly bind”. For the same molecule, the “binding to muscarinic receptors” value in [4] is “does not significantly bind”. The heart rate result in test [5] is recorded as “decreases”. Besides, the coronary flow result in test [5] (isolated perfused rat heart) is “Concentration-dependent increases”. The “pressure volume relationship of the left ventricle (LVEDP vs stroke volume)” value in test [6] is on record as “did not increase dP/dt, cardiac output, or affect the pressure volume relationship”. In test [6] (setting [14]), the cardiac output result is listed as “did not increase” and the “myocardial contractility (dP/dt of left ventricular pressure)” value is on record as “did not increase”. In test [7], the “binding to α2-adrenergic receptors” value is “does not significantly bind”. For the same molecule, in test [8], the heart rate entry is recorded as “dose-related decreases” and the “mean arterial blood pressure” value is reported as “dose-related decreases”. The molecule further yielded a half-maximal inhibitory concentration (IC50) in [9] of 0.03 µM. The “binding to β2-adrenergic receptors” value in test [10] is listed as “does not significantly bind”. Moreover, in test [11], the “calculated total peripheral resistance” value is given as “dose-related decreases”, the heart rate result is “dose-related decreases” and the “mean arterial blood pressure” value is recorded as “dose-related decreases”. Also, in test [12], the “binding to dopaminergic receptors” value is given as “does not significantly bind”. Also, in [13], the “binding to serotonergic receptors” value is “does not significantly bind”.
